Experimental data: PubChem BioAssay (NCI)
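Step 1: Grow cells in 96-well plates. Step 2: Expose to compound for 48 hours at 5 concentrations. Step 3: Interpolate endpoints linearly; if unreached, use highest concentration. TGI: concentration producing complete growth inhibition.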

Columns and labels:
Assay in all cases: DTP human tumour cell line panel, 48 h
CAKI-1 renal = tested on: CAKI-1 renal
SK-MEL-5 melanoma = tested on: SK-MEL-5 melanoma
HOP-92 NSCLC = tested on: HOP-92 NSCLC
MCF7 breast = tested on: MCF7 breast
SK-MEL-28 melanoma = tested on: SK-MEL-28 melanoma
NCI-H522 lung = tested on: NCI-H522 lung
BT-549 breast = tested on: BT-549 breast
HT29 colon = tested on: HT29 colon
MDA-N = tested on: MDA-N
KM12 colon = tested on: KM12 colon
SNB-19 CNS = tested on: SNB-19 CNS
MOLT-4 leukemia = tested on: MOLT-4 leukemia
NCI/ADR-RES ovarian = tested on: NCI/ADR-RES ovarian
OVCAR-8 ovarian = tested on: OVCAR-8 ovarian
SK-MEL-2 melanoma = tested on: SK-MEL-2 melanoma
UACC-62 melanoma = tested on: UACC-62 melanoma
MDA-MB-231 breast = tested on: MDA-MB-231 breast
NCI-H460 lung = tested on: NCI-H460 lung
TK-10 renal = tested on: TK-10 renal
IGROV1 ovarian = tested on: IGROV1 ovarian
OVCAR-4 ovarian = tested on: OVCAR-4 ovarian
HCC-2998 colon = tested on: HCC-2998 colon
PC-3 prostate = tested on: PC-3 prostate
SN12C renal = tested on: SN12C renal
SW-620 colon = tested on: SW-620 colon
SNB-75 CNS = tested on: SNB-75 CNS
T-47D breast = tested on: T-47D breast
CCRF-CEM leukemia = tested on: CCRF-CEM leukemia
COLO 205 colon = tested on: COLO 205 colon
HOP-62 NSCLC = tested on: HOP-62 NSCLC
HS 578T breast = tested on: HS 578T breast
RPMI-8226 leukemia = tested on: RPMI-8226 leukemia
SK-OV-3 ovarian = tested on: SK-OV-3 ovarian
HCT-15 colon = tested on: HCT-15 colon
NCI-H226 lung = tested on: NCI-H226 lung
A549 NSCLC = tested on: A549 NSCLC
RXF 393 renal = tested on: RXF 393 renal
HL-60(TB) leukemia = tested on: HL-60(TB) leukemia
SF-268 CNS = tested on: SF-268 CNS
SF-295 CNS = tested on: SF-295 CNS
EKVX NSCLC = tested on: EKVX NSCLC
SR leukemia = tested on: SR leukemia
NCI-H23 lung = tested on: NCI-H23 lung
SF-539 CNS = tested on: SF-539 CNS
786-0 renal = tested on: 786-0 renal
M14 melanoma = tested on: M14 melanoma
ACHN renal = tested on: ACHN renal
MALME-3M melanoma = tested on: MALME-3M melanoma
DU-145 prostate = tested on: DU-145 prostate
A498 renal = tested on: A498 renal
K-562 leukemia = tested on: K-562 leukemia
UACC-257 melanoma = tested on: UACC-257 melanoma
U251 CNS = tested on: U251 CNS
LOX IMVI melanoma = tested on: LOX IMVI melanoma
MDA-MB-435 = tested on: MDA-MB-435
HCT-116 colon = tested on: HCT-116 colon
OVCAR-5 ovarian = tested on: OVCAR-5 ovarian
UO-31 renal = tested on: UO-31 renal
OVCAR-3 ovarian = tested on: OVCAR-3 ovarian

Measured: TGI

Cc1ccc(N=Nc2c(O)c(S(=O)(=O)O)cc3cc(S(=O)(=O)O)ccc23)c(C)c1
> 100 µM: all assays above

CO/C(N)=C(\C#N)N=Cc1ccccc1
> 100 µM: all assays above

C=C(C)C(=O)OC1C[C@H](COC(C)=O)C2CC=C(C)C2C2OC(=O)C(=C)[C@H]12 (stereo partly specified)
31 µM: SK-OV-3 ovarian
10.3 µM: MDA-N
31.8 µM: SNB-19 CNS | NCI-H226 lung
2.55 µM: MALME-3M melanoma
5.07 µM: SR leukemia
14 µM: HS 578T breast
34.4 µM: NCI-H460 lung
13.3 µM: OVCAR-8 ovarian
4.23 µM: M14 melanoma
5.3 µM: OVCAR-3 ovarian
14.2 µM: NCI-H23 lung
33.8 µM: SF-295 CNS
27.8 µM: A498 renal
6.53 µM: SW-620 colon
10.1 µM: SF-539 CNS
3.06 µM: NCI-H522 lung
22.1 µM: U251 CNS
5.9 µM: HOP-92 NSCLC
5.57 µM: OVCAR-4 ovarian
13.1 µM: SN12C renal
11.8 µM: ACHN renal
15.9 µM: SK-MEL-2 melanoma
18.1 µM: TK-10 renal
6.17 µM: COLO 205 colon
16.5 µM: DU-145 prostate
14.4 µM: BT-549 breast
13.5 µM: MDA-MB-231 breast
6.23 µM: NCI/ADR-RES ovarian
13.2 µM: UACC-257 melanoma
34.2 µM: A549 NSCLC
16.7 µM: UACC-62 melanoma
4.91 µM: UO-31 renal
20.8 µM: T-47D breast
5.17 µM: HCT-15 colon
7.26 µM: 786-0 renal
29.2 µM: HCC-2998 colon
14.7 µM: MCF7 breast
7.08 µM: SK-MEL-28 melanoma
15.1 µM: PC-3 prostate
2.83 µM: HL-60(TB) leukemia
5.03 µM: CCRF-CEM leukemia
23.4 µM: EKVX NSCLC
4.86 µM: LOX IMVI melanoma
20.3 µM: SK-MEL-5 melanoma
25.5 µM: IGROV1 ovarian | OVCAR-5 ovarian
7 µM: CAKI-1 renal
10.9 µM: MDA-MB-435
14.1 µM: RXF 393 renal
27.7 µM: HOP-62 NSCLC
3.3 µM: HCT-116 colon
2.61 µM: RPMI-8226 leukemia
5.56 µM: K-562 leukemia
24.2 µM: KM12 colon | SNB-75 CNS
7.21 µM: SF-268 CNS
18 µM: HT29 colon
5.24 µM: MOLT-4 leukemia

Cc1ccc(C(=O)CCl)o1
> 6.61 µM: OVCAR-8 ovarian
4.22 µM: HL-60(TB) leukemia
> 7.83 µM: CCRF-CEM leukemia
> 8.31 µM: MALME-3M melanoma
5.68 µM: MOLT-4 leukemia
> 8.18 µM: COLO 205 colon
> 6.21 µM: UO-31 renal
> 9.57 µM: OVCAR-5 ovarian
5 µM: SW-620 colon
> 7.23 µM: CAKI-1 renal
8.76 µM: LOX IMVI melanoma
> 7.79 µM: T-47D breast
> 5.46 µM: NCI-H522 lung
6.62 µM: HCT-116 colon
9.71 µM: 786-0 renal
5.42 µM: RPMI-8226 leukemia
> 10 µM: all other assays above
